In patent publication US12077503B2, “Substituted cyclic amides and their use as herbicides” (FMC CORPORATION, priority 2015, dated 2024):

Tests used:
Type in all cases: in vivo
[1] = tested on: ducksalad (Heteranthera limosa); assay: Test B flooded paddy test; settings: Heteranthera limosa, 250 g ai/ha, Flood; 0 to 100 scale where 0 is no effect and 100 is complete control; read-out: Ducksalad plant response rating
Method in brief: (§1)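 Visual ratings (0 none to 100 complete control) are relative to untreated plants, taken 13–15 d after treatment in a greenhouse. Test material went straight into floodwater standing 3 cm above the soil, kept constant, on plants at the 2-leaf stage.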

rice (Oryra sativa) = assay: Test B flooded paddy test; settings: Oryza sativa, 250 g ai/ha, Flood; 0 to 100 scale where 0 is no effect and 100 is complete control; read-out: Rice plant response rating
Method in brief: as §1

[2] = tested on: barnyardgrass (Echinochloa crus-galli); assay: Test B flooded paddy test; settings: Echinochloa crus-galli, 250 g ai/ha, Flood; 0 to 100 scale where 0 is no effect and 100 is complete control; read-out: Barnyardgrass plant response rating
Method in brief: as §1

[3] = tested on: sedge, umbrella (small-flower umbrella sedge, Cyperus difformis); assay: Test B flooded paddy test; settings: Cyperus difformis, 250 g ai/ha, Flood; 0 to 100 scale where 0 is no effect and 100 is complete control; read-out: Sedge, Umbrella plant response rating
Method in brief: as §1

[4] = tested on: giant foxtail (Setaria faberii); assay: Test A preemergence; settings: Setaria faberi, pre-emergence, 240 h, 0 to 100 scale where 0 is no effect and 100 is complete control, read-out: Foxtail, Giant plant response rating; for pest or weed control at 31 g/ha: 31 g ai/ha, Preemergence; for pest or weed control at 125 g/ha: 125 g ai/ha, preemergence, approx. 10 d
Method in brief: (§2)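 Ratings of 0 (no effect) to 100 (complete control) come from visual comparison with untreated controls roughly 10 d after treatment. Test chemicals, formulated in a non-phytotoxic solvent mixture with surfactant, were applied either as a preemergence directed soil spray on seeded soil or postemergence to one- to two-leaf plants 2 to 10 cm tall.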

Kochia (Kochia scoparia) [5] = assay: Test A preemergence; settings: Bassia scoparia, pre-emergence, 240 h, 0 to 100 scale where 0 is no effect and 100 is complete control, read-out: Kochia plant response rating; for pest or weed control at 31 g/ha: 31 g ai/ha, Preemergence; for pest or weed control at 125 g/ha: 125 g ai/ha, preemergence, approx. 10 d
Method in brief: as §2

[6] = tested on: ragweed (common ragweed, Ambrosia elatior); assay: Test A preemergence; settings: Ambrosia artemisiifolia, pre-emergence, 240 h, 0 to 100 scale where 0 is no effect and 100 is complete control, read-out: Ragweed plant response rating; for pest or weed control at 31 g/ha: 31 g ai/ha, Preemergence; for pest or weed control at 125 g/ha: 125 g ai/ha, preemergence, approx. 10 d
Method in brief: as §2

[7] = tested on: barnyardgrass (Echinochloa crus-galli); assay: Test A preemergence; settings: Echinochloa crus-galli, pre-emergence, 240 h, 0 to 100 scale where 0 is no effect and 100 is complete control, read-out: Barnyardgrass plant response rating; for pest or weed control at 31 g/ha: 31 g ai/ha, Preemergence; for pest or weed control at 125 g/ha: 125 g ai/ha, preemergence, approx. 10 d
Method in brief: as §2

[8] = tested on: ryegrass, Italian (Italian ryegrass, Lolium multiflorum); assay: Test A preemergence; settings: Lolium multiflorum, pre-emergence, 240 h, 0 to 100 scale where 0 is no effect and 100 is complete control, read-out: Ryegrass, Italian plant response rating; for pest or weed control at 31 g/ha: 31 g ai/ha, Preemergence; for pest or weed control at 125 g/ha: 125 g ai/ha, preemergence, approx. 10 d
Method in brief: as §2

[9] = tested on: pigweed (Amaranthus retroflexus); assay: Test A preemergence; settings: Amaranthus retroflexus, pre-emergence, 240 h, 0 to 100 scale where 0 is no effect and 100 is complete control, read-out: Pigweed plant response rating; for pest or weed control at 31 g/ha: 31 g ai/ha, Preemergence; for pest or weed control at 125 g/ha: 125 g ai/ha, preemergence, approx. 10 d
[10] = tested on: wheat (Triticum aestivum); assay: Test A postemergence; settings: Triticum aestivum, post-emergence, 240 h; for plant injury at 125 g/ha: 125 g ai/ha, postemergence, visual injury on 0 to 100 scale (0 no effect, 100 complete control), approx. 10 d, read-out: Wheat plant response rating; for plant injury at 31 g/ha: Postemergence, 31 g ai/ha, visual injury after approx. 10 d, 0 to 100 scale, 0 no effect, 100 complete control, read-out: Plant response rating, Wheat
Method in brief: as §2

[11] = tested on: giant foxtail (Setaria faberii); assay: Test A postemergence; settings: Setaria faberi, post-emergence, 240 h; for pest or weed control at 125 g/ha: 125 g ai/ha, postemergence, visual injury on 0 to 100 scale (0 no effect, 100 complete control), approx. 10 d, read-out: Foxtail, Giant plant response rating; for pest or weed control at 31 g/ha: Postemergence, 31 g ai/ha, visual injury after approx. 10 d, 0 to 100 scale, 0 no effect, 100 complete control, read-out: Plant response rating, Foxtail, Giant
Method in brief: as §2

[12] = tested on: Galium (catchweed bedstraw, Galium aparine); assay: Test A postemergence; settings: Galium, post-emergence, 240 h; for pest or weed control at 125 g/ha: 125 g ai/ha, postemergence, visual injury on 0 to 100 scale (0 no effect, 100 complete control), approx. 10 d, read-out: Galium plant response rating; for pest or weed control at 31 g/ha: Postemergence, 31 g ai/ha, visual injury after approx. 10 d, 0 to 100 scale, 0 no effect, 100 complete control, read-out: Plant response rating, Galium
Method in brief: as §2

Kochia (Kochia scoparia) [13] = assay: Test A postemergence; settings: Bassia scoparia, post-emergence, 240 h; for pest or weed control at 125 g/ha: 125 g ai/ha, postemergence, visual injury on 0 to 100 scale (0 no effect, 100 complete control), approx. 10 d, read-out: Kochia plant response rating; for pest or weed control at 31 g/ha: Postemergence, 31 g ai/ha, visual injury after approx. 10 d, 0 to 100 scale, 0 no effect, 100 complete control, read-out: Plant response rating, Kochia
Method in brief: as §2

corn (Zea mays) = assay: Test A postemergence; settings: Zea mays, post-emergence, 240 h; for plant injury at 125 g/ha: 125 g ai/ha, postemergence, visual injury on 0 to 100 scale (0 no effect, 100 complete control), approx. 10 d, read-out: Corn plant response rating; for Corn plant response rating (crop injury, 0 = no effect, 100 = complete kill) at 31 g/ha: Postemergence, 31 g ai/ha, visual injury after approx. 10 d, 0 to 100 scale, 100 complete control
Method in brief: as §2

[14] = tested on: ragweed (common ragweed, Ambrosia elatior); assay: Test A postemergence; settings: Ambrosia artemisiifolia, post-emergence, 240 h; for pest or weed control at 125 g/ha: 125 g ai/ha, postemergence, visual injury on 0 to 100 scale (0 no effect, 100 complete control), approx. 10 d, read-out: Ragweed plant response rating; for pest or weed control at 31 g/ha: Postemergence, 31 g ai/ha, visual injury after approx. 10 d, 0 to 100 scale, 0 no effect, 100 complete control, read-out: Plant response rating, Ragweed
Method in brief: as §2

[15] = tested on: barnyardgrass (Echinochloa crus-galli); assay: Test A postemergence; settings: Echinochloa crus-galli, post-emergence, 240 h; for pest or weed control at 125 g/ha: 125 g ai/ha, postemergence, visual injury on 0 to 100 scale (0 no effect, 100 complete control), approx. 10 d, read-out: Barnyardgrass plant response rating; for pest or weed control at 31 g/ha: Postemergence, 31 g ai/ha, visual injury after approx. 10 d, 0 to 100 scale, 0 no effect, 100 complete control, read-out: Plant response rating, Barnyardgrass
Method in brief: as §2

[16] = tested on: ryegrass, Italian (Italian ryegrass, Lolium multiflorum); assay: Test A postemergence; settings: Lolium multiflorum, post-emergence, 240 h; for pest or weed control at 125 g/ha: 125 g ai/ha, postemergence, visual injury on 0 to 100 scale (0 no effect, 100 complete control), approx. 10 d, read-out: Ryegrass, Italian plant response rating; for pest or weed control at 31 g/ha: Postemergence, 31 g ai/ha, visual injury after approx. 10 d, 0 to 100 scale, 0 no effect, 100 complete control, read-out: Plant response rating, Ryegrass, Italian
Method in brief: as §2

[17] = tested on: blackgrass (Alopecurus myosuroides); assay: Test A postemergence; settings: Alopecurus myosuroides, post-emergence, 240 h; for pest or weed control at 125 g/ha: 125 g ai/ha, postemergence, visual injury on 0 to 100 scale (0 no effect, 100 complete control), approx. 10 d, read-out: Blackgrass plant response rating; for pest or weed control at 31 g/ha: Postemergence, 31 g ai/ha, visual injury after approx. 10 d, 0 to 100 scale, 0 no effect, 100 complete control, read-out: Plant response rating, Blackgrass
Method in brief: as §2

[18] = tested on: pigweed (Amaranthus retroflexus); assay: Test A postemergence; settings: Amaranthus retroflexus, post-emergence, 240 h; for pest or weed control at 125 g/ha: 125 g ai/ha, postemergence, visual injury on 0 to 100 scale (0 no effect, 100 complete control), approx. 10 d, read-out: Pigweed plant response rating; for pest or weed control at 31 g/ha: Postemergence, 31 g ai/ha, visual injury after approx. 10 d, 0 to 100 scale, 0 no effect, 100 complete control, read-out: Plant response rating, Pigweed
Method in brief: as §2

Structure (SMILES) | pest or weed control at 250 g/ha [1] | pest or weed control at 250 g/ha (rice (Oryra sativa)) | pest or weed control at 250 g/ha [2] | pest or weed control at 250 g/ha [3] | pest or weed control at 31 g/ha [4] | pest or weed control at 125 g/ha [4] | pest or weed control at 31 g/ha (Kochia (Kochia scoparia) [5]) | pest or weed control at 125 g/ha (Kochia (Kochia scoparia) [5]) | pest or weed control at 31 g/ha [6] | pest or weed control at 125 g/ha [6] | pest or weed control at 31 g/ha [7] | pest or weed control at 125 g/ha [7] | pest or weed control at 31 g/ha [8] | pest or weed control at 125 g/ha [8] | pest or weed control at 31 g/ha [9] | pest or weed control at 125 g/ha [9] | plant injury at 125 g/ha [10] | plant injury at 31 g/ha [10] | pest or weed control at 125 g/ha [11] | pest or weed control at 31 g/ha [11] | also measured
CN1C[C@H](c2cc(C(F)F)cs2)[C@@H](C(=O)Nc2ccc(F)c(F)c2F)C1=O [Compound 1083] | 95% | 40% | 90% | 0% | 100% | 100% | 20% | 90% | 0% | 80% | 90% | 100% | 20% | 60% | 0% | 20% | 40% | 40% | 90% | 80% | pest or weed control at 125 g/ha [12]: 70%; pest or weed control at 31 g/ha [12]: 60%; pest or weed control at 125 g/ha (Kochia (Kochia scoparia) [13]): 40%; pest or weed control at 31 g/ha (Kochia (Kochia scoparia) [13]): 20%; plant injury at 125 g/ha (corn (Zea mays)): 40%; Corn plant response rating (crop injury, 0 = no effect, 100 = complete kill) at 31 g/ha (corn (Zea mays)): 20%; pest or weed control at 125 g/ha [14]: 30%; pest or weed control at 31 g/ha [14]: 0%; pest or weed control at 125 g/ha [15]: 90%; pest or weed control at 31 g/ha [15]: 90%; pest or weed control at 125 g/ha [16]: 20%; pest or weed control at 31 g/ha [16]: 0%; pest or weed control at 125 g/ha [17]: 60%; pest or weed control at 31 g/ha [17]: 50%; pest or weed control at 125 g/ha [18]: 20%; pest or weed control at 31 g/ha [18]: 0%
CN1C[C@H](c2cc(C(F)F)cs2)[C@@H](C(=O)Nc2ccccc2S(C)(=O)=O)C1=O [Compound 1084] | 100% | 20% | 75% | 0% | 30% | 100% | 0% | 20% | 0% | 10% | 0% | 70% | 0% | 10% | 0% | 0% | 20% | 0% | 50% | 0% | pest or weed control at 125 g/ha [12]: 0%; pest or weed control at 31 g/ha [12]: 0%; pest or weed control at 125 g/ha (Kochia (Kochia scoparia) [13]): 30%; pest or weed control at 31 g/ha (Kochia (Kochia scoparia) [13]): 0%; plant injury at 125 g/ha (corn (Zea mays)): 0%; Corn plant response rating (crop injury, 0 = no effect, 100 = complete kill) at 31 g/ha (corn (Zea mays)): 0%; pest or weed control at 125 g/ha [14]: 0%; pest or weed control at 31 g/ha [14]: 0%; pest or weed control at 125 g/ha [15]: 60%; pest or weed control at 31 g/ha [15]: 10%; pest or weed control at 125 g/ha [16]: 0%; pest or weed control at 31 g/ha [16]: 0%; pest or weed control at 125 g/ha [17]: 20%; pest or weed control at 31 g/ha [17]: 0%; pest or weed control at 125 g/ha [18]: 0%; pest or weed control at 31 g/ha [18]: 0%
